Data on 5 molecules can be found in patent publication US7419969B2 (Bristol-Myers Squibb Company, priority 2004, dated 2008).

The target of data set [1] is T1, HIV-integrase (Human immunodeficiency virus type 1 group M subtype B, UniProt P04585).
T1 construct: Recombinant integrase (0.26 ng) was incubated with the beads
Put plainly: in-vitro activity against HIV-integrase (HIV Integrase Inhibition, SPA bead assay). The data set is classed as biochemical. The settings on record: Table 1a; recombinant integrase, activity class. Put shortly:
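Recombinant integrase (0.26 ng) pre-bound for 90 min at 37 °C to biotinylated substrate DNA on streptavidin SPA beads, then washed. Inhibitors added with 33P-labelled target DNA; reaction stopped with 10 mM EDTA. Scintillation CPM taken as integration signal.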

As for `O=C(NCc1ccc(F)cc1-n1cncn1)c1nc2n(c(=O)c1O)CCCOC21CCOCC1` [Example 118, Spiro[4H-pyran-4,10′(4′H)-[6H]pyrimido[2,1-c][1,4]oxazepine]-2′-carboxamide, N-[[4-fluoro-2-(1H-1,2,4-triazol-1-yl)phenyl]methyl]-2,3,5,6,7′,8′-hexahydro-3′-hydroxy-4′-oxo-], the melting point is 247 °C (dec.). Besides, in data set [1], the IC50 lay within 1 to 10 nM.
For `Cc1ncn(-c2cc(F)ccc2CNC(=O)c2nc3n(c(=O)c2O)CCCOC32CCOCC2)n1` [Example 119, Spiro[4H-pyran-4,10′(4′H)-[6H]pyrimido[2,1-c][1,4]oxazepine]-2′-carboxamide, N-[[4-fluoro-2-(3-methyl-1H-1,2,4-triazol-1-yl)phenyl]methyl]-2,3,5,6,7′,8′-hexahydro-3′-hydroxy-4′-oxo-], the melting point is 240 °C (dec.). Further, the IC50 in data set [1] lay within 1 to 10 nM.
`Cc1ncnn1-c1cc(F)ccc1CNC(=O)c1nc2n(c(=O)c1O)CCCOC21CCOCC1` [Example 120, Spiro[4H-pyran-4,10′(4′H)-[6H]pyrimido[2,1-c][1,4]oxazepine]-2′-carboxamide, N-[[4-fluoro-2-(5-methyl-1H-1,2,4-triazol-1-yl)phenyl]methyl]-2,3,5,6,7′,8′-hexahydro-3′-hydroxy-4′-oxo-] returned a melting point of 204 °C. For the same molecule, in data set [1], the IC50 was in the range of 10 to 100 nM.
Take `Cc1ncn(-c2ccccc2CNC(=O)c2nc3n(c(=O)c2O)CCCOC32CCOCC2)n1` [Example 121, Spiro[4H-pyran-4,10′(4′H)-[6H]pyrimido[2,1-c][1,4]oxazepine]-2′-carboxamide, 2,3,5,6,7,8′-hexahydro-3′-hydroxy-N-[[2-(3-methyl-1H-1,2,4-triazol-1-yl)phenyl]methyl]-4′-oxo-]: the melting point is 247 °C (dec.). Moreover, the IC50 in data set [1] fell in the range of 10 to 100 nM.
Turning to `O=C(NCc1ccc(F)cc1-n1ccnn1)c1nc2n(c(=O)c1O)CCCOC21CCOCC1` [Example 122, Spiro[4H-pyran-4,10′(4′H)-[6H]pyrimido[2,1-c][1,4]oxazepine]-2′-carboxamide, N-[[4-fluoro-2-(1H-1,2,3-triazol-1-yl)phenyl]methyl]-2,3,5,6,7′,8′-hexahydro-3′-hydroxy-4′-oxo-], the melting point was 239 °C (dec.). The half-inhibitory concentration (IC50) in data set [1] is 1 to 10 nM.

Broadly, the melting point is the temperature, or range, at which the solid turns liquid. As usually defined, the IC50 is the concentration that gives 50% inhibition.
